Patent US12503440B2, “Nitroxoline derivative, preparation method therefor, and use thereof” (Jiangsu Yahong Meditech Co., Ltd., priority 2020, dated 2025)
Values after ≈ are worked out from the molar mass of the structure shown.

Key:
Format in all cases: cell-based
Escherichia coli = experiment: Bacteriostatic activity, micro broth dilution MIC (CLSI); conditions: 20 hours; for MIC50 / MIC90: clinical strains (carbapenem-resistant), CAMHB; for MIC50: read-out: Escherichia coli Clinical strain MIC50; for MIC90: read-out: Escherichia coli Clinical strain MIC90; for MIC: standard strain ATCC25922, CAMHB
Method: (§1) The purpose of this test is to determine the bacteriostatic activity of the compounds of the present invention against a representative panel of strains (Gram-negative bacteria: […] ATCC 25922, Acinetobacter baumannii ATCC 19606; Gram-positive bacteria: Staphylococcus aureus ATCC29213). Bacteriostatic activity was determined by minimum inhibitory concentration (MIC), MIC50, MIC90. This test was entrusted to Shanghai Junj Lab Co., Ltd. Except for the test drugs, all other test materials were provided by Shanghai Junj Lab Co., Ltd.
(§2) The tested bacteria were several strains of clinically isolated carbapenem-resistant Escherichia coli, several strains of carbapenem-resistant Acinetobacter baumannii, several strains of methicillin-resistant Staphylococcus aureus, and several strains of sensitive Staphylococcus aureus. Duplicate strains isolated from the same patient were eliminated. There were also three quality control strains Escherichia coli ATCC 25922, Acinetobacter baumannii ATCC 19606, and Staphylococcus aureus ATCC 29213. The activity test of each compound was carried out on one or more strains of each of the above test bacteria.
(§3) According to the recommendations of relevant documents of the American Clinical and Laboratory Standards Institute (CLSI), the micro broth dilution method was used to determine the MIC of the compounds of the present invention against clinically isolated strains. The culture solution free of drug was used as the test bacteria positive control, the culture solution free of bacterial solution was used as the drug negative control, and the culture solution free of drug solution and bacterial solution was used as the blank control. • 4.1 Formulation of antibacterial drug: All the compounds of the present invention were dissolved in DMSO. The drug concentration range was 128 mg/L-0.06 mg/L. Specific method: The compounds of the present invention were successively diluted by 1:1 with DMSO to obtain an intermediate series with a range of 25600 mg/L-12.5 mg/L. 30 μL of solution from each tube of the intermediate series of each compound was added to a 3 mL/tube series of single broth tube, and mixed well to obtain an intermediate series with a range of 256 mg/L to 0.125 mg/L. The diluted series solution was added to the drug susceptibility plate line by line, 50 μL of solution per well. All ranges became investigated ranges after being mixed with an equal volume of bacterial solution: 128-0.06 mg/L. • 4.2 Culture medium: The drug susceptibility test used cation adjusted Mueller-Hinton broth (CAMHB). • 4.3 Amount of inoculum: The test bacteria cultured overnight were adjusted to 0.5 McFarland turbidity by the direct colony suspension method, and diluted 100 folds, the final inoculum amount was 10^5 CFU/mL. • 4.4 Culture conditions: The test bacteria were cultured at 35±2° C. for 20 hours in air. 5. Interpretation and Judgment of Results
(§4) The drug susceptibility test results were interpretated by reference to CLSI 2019 edition M100 29th edition criteria.
(§5) The results of drug susceptibility test were statistically analyzed by WHONET version 5.6 software.
(§6) The culture solution free of bacterial solution was used as the drug negative control, and the culture solution free of drug solution and bacterial solution was used as the blank control, wherein no bacteria grew in both solutions.

Staphylococcus aureus = experiment: as above; conditions: 20 hours; for MIC50 / MIC90: clinical strains (methicillin-resistant and sensitive), CAMHB; for MIC50: read-out: Staphylococcus aureus Clinical strain MIC50; for MIC90: read-out: Staphylococcus aureus Clinical strain MIC90; for MIC: standard strain ATCC29213, CAMHB
Method: as §1, §2, §3, §4, §5, §6

Acinetobacter baumannii = experiment: as above; conditions: 20 hours; for MIC50 / MIC90: clinical strains (carbapenem-resistant), CAMHB; for MIC50: read-out: Acinetobacter baumannii Clinical strain MIC50; for MIC90: read-out: Acinetobacter baumannii Clinical strain MIC90; for MIC: standard strain ATCC19606, CAMHB
Method: as §1, §2, §3, §4, §5, §6

[1] = tested on: Bladder cancer cell line UM-UC-3; experiment: Inhibitory activity on cancer cells, CellTiter-Glo viability, 72 h; conditions: Homo sapiens, UMUC3, UM-UC-3, 72 h
From the text: (§7) • HUVEC (purchased from Allcells Biological Technology (Shanghai) Co., Ltd.); UM-UC-3 (ATCC); LNCaP Clone FGC (ATCC); RM-1 (purchased from Nanjing Cobioer Biosciences Co., Ltd.) 2. Reagents • Endothelial cell complete medium (Allcells, H-004) • Medium RPMI1640 (ATCC, 30-2001) • Medium EMEM (ATCC, 30-2003) • Medium DMEM (Gibco, 12430-054) • Fetal bovine serum (Gibco, 10091148) • Penicillin-streptomycin double anti-body (Gibco, S110JV) • DPBS (Gibco, 14190-144) • CellTiter-Glo® kit (Promega, G7573) • Trypsin (0.25%), phenol red (Gibco, 25200-056) • DMSO (Sigma, D2650) 3. Instruments • Biological safety cabinet (Suzhou Antai Airtech Co., Ltd., BSC-1300A II) • Inverted microscope (Nikon, CKX53) • Automated cell counter (Life Technologies, countess II) • Multifunctional microplate reader (Biotek, H1FM) • Shaker (Hangzhou Allsheng Instruments Co., Ltd., OS-100) • GraphPad Prism 5.0 software • XLFIT 5.3 (Inforstack Shanghai Co., Ltd.) 4. Test Method
(§8) In this test method, the following experiments were carried out in a biological safety cabinet, and the specific steps are as follows: • (1) On the first day, the cells were seeded in a 96-well plate, and the previous medium was poured off. 5 mL of DPBS was added to wash the cells, and then removed by a pipette. Then, 1 mL of trypsin (0.25%) was added, and the plate was placed in a cell culture incubator at 37° C., 5% CO2 for digestion, and taken out after about 2 to 5 minutes. New corresponding medium was added, and pipetted to resuspend the cells evenly, and the cells were then counted with an automated cell counter.
(§9) The digestion was observed using an inverted microscope.
(§10) Regarding to HUVEC, the medium used was endothelial cell complete medium; regarding to UM-UC-3, the medium used was 89v % EMEM+10v % fetal bovine serum+1 v % penicillin-streptomycin double anti-body; regarding to LNcaP Clone FGC, the medium used was 89v % RPM11640+10v % fetal bovine serum+1 v % penicillin-streptomycin double anti-body; and regarding to RM-1, the medium used was 89v % DMEM+10v % fetal bovine serum+1v % penicillin-streptomycin double anti-body. • (2) HUVEC cells were seeded in columns 1 to 11 of a 96-well plate (Corning, Cat. No. 3610) at a density of 2000 cells per well in 100 μL of medium, and the medium free of cell was added to the wells of column 12. The other three types of cells were also seeded, wherein UM-UC-3 and RM-1 cells were seeded at a density of 3000 cells per well, and LNCap Clone FGC cells were seeded at a density of 5000 cells per well. Then, the plate was placed in an incubator at 37° C., 5% CO2 for 24 hours. • (3) On the second day, the compounds of the present invention and the reference drug nitroxoline (obtained according to the preparation method disclosed in the prior art) were diluted in gradient (2.5 folds, started at 100 μmol) to obtain 8 dose points (there were a total of 8 columns of wells; the first column of wells had the highest concentration, the concentration decreased in turn, and the last column of wells had the lowest concentration). 10 uL of the compound diluted in gradient was added to the 100 μL of cells in column 1 to column 10 with an 8-channel pipette. 10 μL of the corresponding medium containing 0.33v % DMSO was added to column 11 and column 12. The plate was incubated in an incubator at 37° C., 5% CO2 for 72 hours (note: column 11 was used as MAX well with cells and no compounds; and column 12 was used as MIN well with no cells and no compounds). • (4) After treating with the compounds of the present invention for 72 hours, the cell viability detection reagents in the above CellTiter-Glo® kit were added to the 96-well plate at 50 μL per well according to the instructions. […]

[2] = tested on: Prostate cancer cell line LNcaP Clone FGC; experiment: as above; conditions: Homo sapiens
From the text: as §7, §8, §9, §10

[3] = tested on: Mouse prostate cancer cell line RM-1; experiment: as above; conditions: RM-1, 72 h
From the text: as §7, §8, §9, §10

Row | SMILES | MIC50 (Escherichia coli) [µg/mL] | MIC90 (Escherichia coli) [µg/mL] | MIC (Escherichia coli) [µg/mL] | MIC50 (Staphylococcus aureus) [µg/mL] | MIC90 (Staphylococcus aureus) [µg/mL] | MIC (Staphylococcus aureus) [µg/mL] | MIC50 (Acinetobacter baumannii) [µg/mL] | MIC90 (Acinetobacter baumannii) [µg/mL] | IC50 [1] [µM] | IC50 [2] [µM] | MIC (Acinetobacter baumannii) [µg/mL] | IC50 [3] [µM]
1 | O=C(OCC1CC1)c1cnc2c(O)ccc([N+](=O)[O-])c2c1 [Example 39, cyclopropylmethyl 8-hydroxy-5-nitroquinoline-3-carboxylate] | 64 (≈ 222 µM) | 64 (≈ 222 µM) | 64 (≈ 222 µM) | 1 (≈ 3.47 µM) | 1 (≈ 3.47 µM) | 2 (≈ 6.94 µM) | – | – | – | – | – | –
2 | O=[N+]([O-])c1c(C2CC2)cc(O)c2ncccc12 [Example 34, 8-hydroxy-6-cyclopropyl-5-nitroquinoline] | 16 (≈ 69.5 µM) | 16 (≈ 69.5 µM) | – | 4 (≈ 17.4 µM) | 4 (≈ 17.4 µM) | – | 8 (≈ 34.7 µM) | 32 (≈ 139 µM) | – | – | – | –
3 | O=[N+]([O-])c1ccc(O)c2nccc(-c3ccncc3)c12 [Example 14, 5-nitro-4-(pyridin-4-yl)quinolin-8-ol] | – | – | – | – | – | – | – | – | 5 | 3.8 | – | –
4 | O=C(OC1CCCCC1)c1cnc2c(O)ccc([N+](=O)[O-])c2c1 [Example 43, cyclohexyl 8-hydroxy-5-nitroquinoline-3-carboxylate] | 128 (≈ 405 µM) | 128 (≈ 405 µM) | 128 (≈ 405 µM) | 2 (≈ 6.32 µM) | 2 (≈ 6.32 µM) | 4 (≈ 12.6 µM) | 128 (≈ 405 µM) | 128 (≈ 405 µM) | – | – | 128 (≈ 405 µM) | –
5 | O=[N+]([O-])c1ccc(O)c2nccc(N3CCCCC3)c12 [Example 6, 5-nitro-4-(piperidin-1-yl)quinolin-8-ol] | – | – | – | – | – | – | – | – | 7 | – | – | –
6 | O=[N+]([O-])c1ccc(O)c2nccc(N3CCOCC3)c12 [Example 5, 4-morpholino-5-nitroquinolin-8-ol] | – | – | – | – | – | – | – | – | 5.5 | 5.5 | – | –
7 | CC(C)c1cc(O)c2ncccc2c1[N+](=O)[O-] [Example 33, 8-hydroxy-6-isopropyl-5-nitroquinoline] | 32 (≈ 138 µM) | 32 (≈ 138 µM) | – | 4 (≈ 17.2 µM) | 4 (≈ 17.2 µM) | – | 32 (≈ 138 µM) | 64 (≈ 276 µM) | – | – | – | –
8 | O=[N+]([O-])c1ccc(O)c2nccc(C3CCCCC3)c12 [Example 25, 4-cyclohexyl-5-nitroquinolin-8-ol] | 32 (≈ 118 µM) | 32 (≈ 118 µM) | 32 (≈ 118 µM) | 4 (≈ 14.7 µM) | 4 (≈ 14.7 µM) | 4 (≈ 14.7 µM) | 32 (≈ 118 µM) | 32 (≈ 118 µM) | – | – | 32 (≈ 118 µM) | –
9 | O=[N+]([O-])c1cc(F)c(O)c2ncccc12 [Example 1, 7-fluoro-5-nitroquinolin-8-ol] | 4 (≈ 19.2 µM) | 8 (≈ 38.4 µM) | 8 (≈ 38.4 µM) | 4 (≈ 19.2 µM) | 4 (≈ 19.2 µM) | – | 8 (≈ 38.4 µM) | 16 (≈ 76.9 µM) | – | – | – | –
10 | O=[N+]([O-])c1ccc(O)c2nccc(N3CCNCC3)c12 [Example 10, 5-nitro-4-(piperazin-1-yl)quinolin-8-ol] | – | – | – | – | – | – | – | – | 3 | – | – | –
11 | CCOC(=O)c1cnc2c(O)ccc([N+](=O)[O-])c2c1 [Example 32, ethyl 8-hydroxy-5-nitroquinoline-3-carboxylate] | 64 (≈ 244 µM) | 128 (≈ 488 µM) | 64 (≈ 244 µM) | 2 (≈ 7.63 µM) | 4 (≈ 15.3 µM) | 4 (≈ 15.3 µM) | 64 (≈ 244 µM) | 128 (≈ 488 µM) | – | – | 32 (≈ 122 µM) | –
12 | CCN(CC)C(=O)c1cnc2c(O)ccc([N+](=O)[O-])c2c1 [Example 40, N,N-diethyl-8-hydroxy-5-nitroquinoline-3-carboxamide] | 8 (≈ 27.7 µM) | 8 (≈ 27.7 µM) | 8 (≈ 27.7 µM) | 64 (≈ 221 µM) | 64 (≈ 221 µM) | 32 (≈ 111 µM) | – | – | – | – | – | –
13 | O=[N+]([O-])c1ccc(O)c2nccc(-c3cccnc3)c12 [Example 17, 5-nitro-4-(pyridin-3-yl)quinolin-8-ol] | – | – | – | – | – | – | – | – | 4.9 | 4.8 | – | 2.8
14 | O=[N+]([O-])c1ccc(O)c2nccc(C(F)(F)F)c12 [Example 26, 5-nitro-4-trifluoromethylquinolin-8-ol] | 8 (≈ 31 µM) | 16 (≈ 62 µM) | 8 (≈ 31 µM) | 2 (≈ 7.75 µM) | 2 (≈ 7.75 µM) | 2 (≈ 7.75 µM) | 8 (≈ 31 µM) | 8 (≈ 31 µM) | – | – | 8 (≈ 31 µM) | –
15 | O=[N+]([O-])c1c(F)cc(O)c2ncccc12 [Example 42, 8-hydroxy-6-fluoro-5-nitroquinoline] | 64 (≈ 307 µM) | 64 (≈ 307 µM) | 64 (≈ 307 µM) | 64 (≈ 307 µM) | 64 (≈ 307 µM) | 64 (≈ 307 µM) | – | – | – | – | – | –
16 | N#Cc1ccnc2c(O)ccc([N+](=O)[O-])c12 [Example 27, 4-cyano-5-nitroquinolin-8-ol] | 16 (≈ 74.4 µM) | 32 (≈ 149 µM) | 16 (≈ 74.4 µM) | 16 (≈ 74.4 µM) | 16 (≈ 74.4 µM) | 16 (≈ 74.4 µM) | 32 (≈ 149 µM) | 32 (≈ 149 µM) | – | – | 16 (≈ 74.4 µM) | –
